For data set [1], the target named is T1, human V1a receptor (Homo sapiens, UniProt P37288).
T1 construct: host or cells: CHO cells
As to the kind of experiment: Inhibition of phosphatidylinositol turnover (V1a). The format is cell-based. The settings on record: hV1a cells. From the text: EXAMPLE. Inhibition of phosphatidylinositol turnover (V1a). The physiological effects of vasopressin are mediated through specific G-protein coupled receptors. The V1aR is coupled to the Gq/G11 family of G proteins and mediates phosphatidylinositol turnover. The agonist or antagonist character of the compounds of the invention may be determined by their ability to inhibit vasopressin-mediated turnover of phosphatidylinositol by the procedure described in the following paragraphs.
Cell culture and labeling of cells. Three days prior to the assay, near-confluent cultures of hV1a or hV1b cells were dissociated and seeded in 6-well tissue culture plates, about 100 wells being seeded from each 75 cm^2 flask (equivalent to 12:1 split ratio). Each well contained 1 mL of growth medium with 2 μCi of [^3H]myo-inositol (American Radiolabeled Chemicals, St. Louis, Mo., USA).
Incubations (V1a and V1b). All assays were in triplicate except for basal and 10 nM AVP (both n=6). AVP ((arginine vasopressin), Peninsula Labs, Belmont, Calif., USA (#8103)) was dissolved in 0.1N acetic acid. Test agents were dissolved in DMSO and diluted in DMSO to 200 times the final test concentration. […] The order of incubations was randomized. Incubations were initiated by removing the prelabeling medium, washing the monolayer once with 1 mL of 0.9% NaCl, and transferring the contents of the assay tubes to corresponding wells. The plates were incubated for 1 hour at 37° C. Incubations were terminated by removing the incubation medium and adding 500 μL of ice cold 5% (w/v) trichloroacetic acid and allowing the wells to stand for 15 min.
Measurement of [^3H]inositol phosphates (V1a and V1b). BioRad Poly-Prep Econo-Columns were packed with 0.3 mL of AG 1 X-8 100-200 formate form resin. Resin was mixed 1:1 with water and 0.6 mL added to each column. Columns were then washed with 10 mL water. Scintillation vials (20 mL) were placed under each column. For each well, the contents were transferred to a minicolumn, after which the well was washed with 0.5 mL distilled water, which was also added to the minicolumn. The columns were then washed twice with 5 mL of 5 mM myo-inositol to elute free inositol. Aliquots (1 mL) were transferred to 20 mL scintillation vials and 10 mL of Beckman Ready Protein Plus added. After the myo-inositol wash was complete, empty scintillation vials were placed under the columns, and [^3H]inositol phosphates were eluted with three additions of 1 mL 0.5 M ammonium formate containing 0.1 N formic acid. […] Inositol lipids were measured by adding 1 mL of 2% sodium dodecyl sulfate (SDS) to each well, allowing the wells to stand for at least 30 min., and transferring the solution to 20 mL scintillation vials, to which 10 mL Beckman Ready Protein Plus scintillation fluid was then added. Samples were counted in a Beckman LS 3801 liquid scintillation counter for 10 min. Total inositol incorporation for each well was calculated as the sum of free inositol, inositol phosphates, and inositol lipids.
Data analysis (V1a and V1b): concentration-inhibition experiments. Concentration-response curves for AVP and concentration-inhibition curves for test agents versus 10 nM AVP were analyzed by nonlinear least-squares curve-fitting to a 4-parameter logistic function. […] The curve-fitting was weighted under the assumption that the standard deviation was proportional to dpm of radioactivity. […]

Another data set deals with V2 (Homo sapiens, UniProt P30518). Kind of data set: V2 receptor inhibition data (Ki). The settings on record: selectivity table. It is filed as binding.
In data set [2] the target is T1, human V1a receptor. As to the kind of experiment: Human vasopressin V1a receptor binding assay. The conditions noted are these: hV1a cell line, [3H]-AVP. On the procedure: EXAMPLE. Human vasopressin V1a receptor binding assay. A cell line expressing the human V1a receptor in CHO cells (henceforth referred to as the hV1a cell line) was obtained from Dr. Michael Brownstein, NIMH, Bethesda, Md., USA. The hV1a cDNA sequence is described by Thibonnier et al., Journal of Biological Chemistry, 269, 3304-3310 (1994), and the expression method was the same as described by Morel et al. (1992). The hV1a cell line was grown in alpha-MEM with 10% fetal bovine serum and 250 ug/ml G418 (Gibco, Grand Island, N.Y., USA). For competitive binding assay, hV1a cells were plated into 6-well culture plate at 1:10 dilution from a confluency flask, and maintained in culture for at least two days. Culture medium was then removed, cells were washed with 2 ml binding buffer (25 mM Hepes, 0.25% BSA, 1×DMEM, PH=7.0). To each well, 990 μl binding buffer containing 1 nM 3H-AVP was added, and followed by 10 μl series diluted Example compounds dissolved in DMSO. […] 100 nM cold AVP (Sigma) was used to assess non-specific binding. Cells were incubated for 45 minutes at 37° C., assay mixture was removed and each well was washed three times with PBS (pH=7.4). 1 ml 2% SDS was added per well and plates were let sit for 30 minutes. The whole content in a well was transferred to a scintillation vial. Each well was rinsed with 0.5 ml PBS which was then added to the corresponding vial. Scintillation fluid (Ecoscint, National Diagnostics, Atlanta, Ga.) was then added at 3 ml per vial. Samples were counted in a liquid scintillation counter (Beckman LS3801). IC50 values were calculated by Prism Curve fitting software.
All of the alkanedioic esters and amides exemplified in the foregoing examples dissolved in DMSO were tested in this assay. Binding curves were generated according to methods described by Thibonnier et al. (1994). [^3H]-AVP was added to the hV1a cell cultures followed by 10-fold dilutions of each test compound.

The next data set concerns the target T2, V1b receptor (Homo sapiens, UniProt P47901).
T2 construct: expressed in transfected cells; host or cells: CHO-K1 (ATCC), vector PCI-neo
T2 sequence (P47901 1-424): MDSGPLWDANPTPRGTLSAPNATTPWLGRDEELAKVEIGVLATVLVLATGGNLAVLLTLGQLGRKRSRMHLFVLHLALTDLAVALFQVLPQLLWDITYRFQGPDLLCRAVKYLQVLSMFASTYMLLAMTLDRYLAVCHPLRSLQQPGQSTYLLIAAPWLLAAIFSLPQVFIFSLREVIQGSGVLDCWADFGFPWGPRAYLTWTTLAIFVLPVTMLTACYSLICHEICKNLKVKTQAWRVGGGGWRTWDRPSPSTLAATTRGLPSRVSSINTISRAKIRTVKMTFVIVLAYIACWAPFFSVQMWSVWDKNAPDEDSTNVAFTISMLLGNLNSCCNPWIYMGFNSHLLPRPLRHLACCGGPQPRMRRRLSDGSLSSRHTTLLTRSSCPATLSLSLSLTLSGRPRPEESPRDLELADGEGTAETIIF
Kind of data set: Human or rat vasopressin V1b cell-based receptor binding assay. The settings on record: selectivity table; read-out: inhibition data Ki, V1b. An excerpt: EXAMPLE. Human vasopressin V1b receptor-expressing cells. Human vasopressin receptor 1b (hV1b) cDNA (see, Lolait et al., “Extrapituitary expression of the rat V1b vasopressin receptor gene” Proc. Natl. Acad. Sci. USA. 92:6783-7 (1995); de Keyzer et al., “Cloning and characterization of the human V3(V1b) pituitary vasopressin receptor” FEBS Lett. 356:215-20 (1994); Sugimoto et al., “Molecular cloning and functional expression of a cDNA encoding the human V1b vasopressin receptor” J. Biol. Chem. 269:27088-92 (1994)) was inserted into a mammalian cell expression vector PCI-neo (Promega) at EcoR1 site. The recombinant plasmid carrying hV1b cDNA was identified from transformed E. Coli clones and used for the transfection of Chinese hamster ovary cell (CHO-K1, ATCC). Two micrograms of hV1b receptor DNA was introduced into 10^5 CHO cells cultured in 6-well plate, using Fugene-6 mediated transfection technique (Boehringer Mannheim). Twenty-four hrs post transfection, Cells were then cultured under selection of G-418 (0.25 mg/ml) supplemented to the culture medium. Three days later, limited dilution was carried out to obtain single cell clones in 96-well plates. […]
EXAMPLE. […] Samples were counted in a liquid scintillation counter (Beckman LS3801). IC50 and Ki values were calculated using Prism Curve fitting software. […]

A short description of another data set: Pharmacokinetics. The format is in vivo. The conditions noted are these: b.i.d. dosing. From the text:
EXAMPLE. Pharmacokinetics. Compounds described herein are rapidly absorbed after oral administration. Compounds described herein cross the blood-brain-barrier and achieve therapeutically effective concentrations in the CNS. Compounds described herein may be dosed according to a wide variety of protocols, including but not limited to q.d., b.i.d., and the like.

T1 sequence (P37288 whole entry): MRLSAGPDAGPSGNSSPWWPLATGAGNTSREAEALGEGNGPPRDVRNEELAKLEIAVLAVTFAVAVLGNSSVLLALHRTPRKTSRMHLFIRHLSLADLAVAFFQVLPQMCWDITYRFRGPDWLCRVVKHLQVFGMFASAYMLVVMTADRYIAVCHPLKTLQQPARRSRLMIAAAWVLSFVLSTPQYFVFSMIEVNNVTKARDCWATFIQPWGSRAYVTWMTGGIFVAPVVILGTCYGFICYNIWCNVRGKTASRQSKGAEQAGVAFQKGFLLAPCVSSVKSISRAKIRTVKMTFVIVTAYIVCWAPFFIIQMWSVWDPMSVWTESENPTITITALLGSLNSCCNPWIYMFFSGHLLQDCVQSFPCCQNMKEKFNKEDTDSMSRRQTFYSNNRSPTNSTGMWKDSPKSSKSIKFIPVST
Chain of V2 (P30518 whole entry): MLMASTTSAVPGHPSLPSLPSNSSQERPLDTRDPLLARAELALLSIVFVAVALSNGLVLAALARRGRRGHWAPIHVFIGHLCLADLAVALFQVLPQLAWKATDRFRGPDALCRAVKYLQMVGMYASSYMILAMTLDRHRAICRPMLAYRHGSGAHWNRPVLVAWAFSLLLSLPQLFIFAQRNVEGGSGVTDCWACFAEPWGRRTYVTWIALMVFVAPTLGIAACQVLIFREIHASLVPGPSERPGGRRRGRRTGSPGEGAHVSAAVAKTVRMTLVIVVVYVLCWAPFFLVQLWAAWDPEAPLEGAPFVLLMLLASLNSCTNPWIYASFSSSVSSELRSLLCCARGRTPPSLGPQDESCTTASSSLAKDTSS

Consider `O=C(NCc1cccc(C(F)(F)F)c1)C(CC(=O)N1CCC(N2CCCCC2)CC1)N1C(=O)C(N2C(=O)OCC2c2ccccc2)C1C=Cc1ccccc1` (stereo not shown) [Example 133], for which, at human V1a receptor [1], the “agonist or antagonist character (inhibition of vasopressin-mediated phosphatidylinositol turnover)” value was “vasopressin V1a antagonists”.

With `O=C(NCc1cccc(C(F)(F)F)c1)C(CCC(=O)N1CCC(N2CCCCC2)CC1)N1C(=O)C(N2C(=O)OCC2c2ccccc2)C1C=Cc1ccccc1` (stereo not shown) [Example 88], the “agonist or antagonist character (inhibition of vasopressin-mediated phosphatidylinositol turnover)” value on human V1a receptor [1] is “vasopressin V1a antagonists”.

With `CN(Cc1cccc(C(F)(F)F)c1)C(=O)[C@@H](CC(=O)N1CCC(N2CCCCC2)CC1)N1C(=O)[C@@H](N2C(=O)OC[C@@H]2c2ccccc2)[C@H]1/C=C/c1ccccc1` [Example 225, 2(R)-[[4-(Piperidinyl)piperidinyl]carbonylmethyl]-2-[3(S)-(4(S)-phenyloxazolidin-2-on-3-yl)-4(R)-(2-styryl)azetidin-2-on-1-yl]acetic acid N-methyl-N-(3-trifluoromethylbenzyl)amide], the Ki (commonly the dissociation constant of the complex between target and ligand, obtained from inhibition or displacement) was over 1000 nM on V2, 1.14 to 1.3 nM on human V1a receptor [2] and over 1000 nM on V1b receptor. For the same compound, the IC50 – broadly, the point on the concentration scale where inhibition reaches its midpoint – at human V1a receptor [2] was 1.86 to 2.13 nM.

Regarding `O=C(NCc1cccc(C(F)(F)F)c1)C(CCC(=O)N1CCN(C2CCCCC2)CC1)N1C(=O)C(N2C(=O)OCC2c2ccccc2)C1C=Cc1ccccc1` (single isomer, unassigned) [Example 110], the “agonist or antagonist character (inhibition of vasopressin-mediated phosphatidylinositol turnover)” value on human V1a receptor [1] is given as “vasopressin V1a antagonists”.

For the compound `C[C@@H](NC(=O)[C@@H](CC(=O)N1CCC(N2CCCCC2)CC1)N1C(=O)[C@@H](N2C(=O)OC[C@@H]2c2ccccc2)[C@H]1/C=C/c1ccccc1)c1ccccc1` [Example 224, 2(R)-[[4-(Piperidinyl)piperidinyl]carbonylmethyl]-2-[3(S)-(4(S)-phenyloxazolidin-2-on-3-yl)-4(R)-(2-styryl)azetidin-2-on-1-yl]acetic acid N—[(R)-α-methylbenzyl]amide], in “Pharmacokinetics”, the T1/2 result is given as “improved” and the accumulation is 1.7 fold. Moreover, at V2, the Ki was over 1000 nM. For the same compound, the Ki on V1b receptor is over 1000 nM.

Consider `O=C(NCc1cccc(C(F)(F)F)c1)C(CC(=O)N1CCC(N2CCCCC2)CC1)N1C(=O)C(N2C(=O)OCC2c2ccccc2)C1C=Cc1ccccc1` (stereo not shown) [Example 44], for which, on human V1a receptor [1], the “agonist or antagonist character (inhibition of vasopressin-mediated phosphatidylinositol turnover)” value is reported as “vasopressin V1a antagonists”.

For `O=C(NCc1cccc(C(F)(F)F)c1)[C@H](CCC(=O)N1CCN(CCc2ccccc2)CC1)N1C(=O)[C@@H](N2C(=O)OC[C@@H]2c2ccccc2)[C@H]1C=Cc1ccccc1` (single isomer, unassigned) [Example 35], the “agonist or antagonist character (inhibition of vasopressin-mediated phosphatidylinositol turnover)” value at human V1a receptor [1] is on record as “vasopressin V1a antagonists”.

These data come from patent publication US11628160B2, “Compositions and methods for treating brain injury” (Azevan Pharmaceuticals, Inc., priority 2017, dated 2023).
